These results are taken from US20080221132A1, “Multi-Functional Small Molecules as Anti-Proliferative Agents” (priority 2006, published 2008).

pIC50: −log10 of the molar value. A value given as a limit tells only on which side of the number the result lay.

For one series, the system named is Pancreas_BxPC3. Kind of series: Cell proliferation assay (ATPlite), BxPC3. Format: cell-based. As to conditions: Homo sapiens, BXPC-3; TABLE C; 72 hours, 0.5% fetal bovine serum, ATP content; read-out: IC50 grading, Pancreas_BxPC3. How it is done: (§1) A representative number of compounds were assayed against several different cell lines using the cell proliferation assay:
(§2) Cell Proliferation Assay:
(§3) Cancer cell lines were plated at 5,000 to 10,000 per well in 96-well flatted bottomed plates with various concentration of compounds. The cells were incubated with compounds for 72 hours in the presence of 0.5% of fetal bovine serum. Growth inhibition was accessed by adenosine triphosphate (ATP) content assay using Perkin Elmer ATPlite kit. ATPlite is an ATP monitoring system based on firefly luciferase. Briefly, 25 μl of mammalian cell lysis solution was added to 50 μl of phenol red-free culture medium per well to lyse the cells and stabilize the ATP. 25 μl of substrate solution was then added to the well and subsequently the luminescence was measured.

For the next series, the system named is Pancreas_CFPAC. Description: Cell proliferation assay (ATPlite), CFPAC. The series is classed as cell-based. The following applies: TABLE C; 72 hours, 0.5% fetal bovine serum, ATP content; read-out: IC50 grading, Pancreas_CFPAC. On the procedure:
as §1, §2, §3
(In general: Cellular ATP, detected with luciferase, serves as a proxy for viable cell number.)

A further series deals with Pancreas_HPAC. Description: Cell proliferation assay (ATPlite), HPAC. Format: cell-based. The following applies: Homo sapiens, TABLE C, 72 hours, 0.5% fetal bovine serum, ATP content, read-out: IC50 grading, Pancreas_HPAC. How it is done:
as §1, §2, §3

The next series concerns Pancreas_MiaPaCa2. Description: Cell proliferation assay (ATPlite), MiaPaCa2. Format: cell-based. As to conditions: Homo sapiens, MIA PaCa-2; TABLE C; 72 hours, 0.5% fetal bovine serum, ATP content; read-out: IC50 grading, Pancreas_MiaPaCa2. How it is done:
as §1, §2, §3

The subject of another series is Pancreas_PANC1. Description: Cell proliferation assay (ATPlite), PANC1. Format: cell-based. As to conditions: Homo sapiens, PANC-1; TABLE C; 72 hours, 0.5% fetal bovine serum, ATP content; read-out: IC50 grading, Pancreas_PANC1. How it is done: as §1, §2, §3
For series [1], the system named is HDAC (HeLa nuclear extract). Kind of series: HDAC fluorimetric assay kit (AK-500, Biomol), HeLa nuclear extract. Format: biochemical. The following applies: TABLE 1-B, Section 1 compounds; read-out: HDAC (IC50 grading). How it is done:
(§4) HDAC inhibitors were screened using an HDAC fluorimetric assay kit (AK-500, Biomol, Plymouth Meeting, Pa.). […] Each assay was setup as follows: Defrosted all kit components and kept on ice until use. […] Prepared dilutions of Trichostatin A (TSA, positive control) and tested compounds in assay buffer (5× of final concentration). Diluted Fluor de Lys™ Substrate in assay buffer to 100 uM (50 fold=2× final). Diluted Fluor de Lys™ developer concentrate 20-fold (e.g. 50 μl plus 950 μl Assay Buffer) in cold assay buffer. Second, diluted the 0.2 mM Trichostatin A 100-fold in the 1× Developer (e.g. 10 μl in 1 ml; final Trichostatin A concentration in the 1× Developer=2 μM; final concentration after addition to HDAC/Substrate reaction=1 μM). Added Assay buffer, diluted trichostatin A or test inhibitor to appropriate wells of the microtiter plate. Added diluted HeLa extract or other HDAC sample to all wells except for negative controls.
HDAC inhibitors were screened using an HDAC fluorimetric assay kit (AK-500, Biomol, Plymouth Meeting, Pa.).
Each assay was setup as follows: Defrosted all kit components and kept on ice until use. […] Prepared dilutions of Trichostatin A (TSA, positive control) and tested compounds in assay buffer (5× of final concentration). Diluted Fluor de Lys™ Substrate in assay buffer to 100 uM (50 fold=2× final). Diluted Fluor de Lys™ developer concentrate 20-fold (e.g. 50 μl plus 950 μl Assay Buffer) in cold assay buffer. Second, diluted the 0.2 mM Trichostatin A 100-fold in the 1× Developer (e.g. 10 μl in 1 ml; final Trichostatin A concentration in the 1× Developer=2 μM; final concentration after addition to HDAC/Substrate reaction=1 μM). Added Assay buffer, diluted trichostatin A or test inhibitor to appropriate wells of the microtiter plate. Added diluted HeLa extract or other HDAC sample to all wells except for negative controls.
HDAC inhibitors is screened using an HDAC fluorimetric assay kit (AK-500, Biomol, Plymouth Meeting, Pa.).
Each assay is setup as follows: Defrost all kit components and kept on ice until use. […] Prepare dilutions of Trichostatin A (TSA, positive control) and tested compounds in assay buffer (5× of final concentration). Dilute Fluor de Lys™ Substrate in assay buffer to 100 uM (50 fold=2× final). Dilute Fluor de Lys™ developer concentrate 20-fold (e.g. 50 μl plus 950 μl Assay Buffer) in cold assay buffer. Second, dilute the 0.2 mM Trichostatin A 100-fold in the 1× Developer (e.g. 10 μl in 1 ml; final Trichostatin A concentration in the 1× Developer=2 μM; final concentration after addition to HDAC/Substrate reaction=1 μM). Add Assay buffer, dilute trichostatin A or test inhibitor to appropriate wells of the microtiter plate. Add diluted HeLa extract or other HDAC sample to all wells except for negative controls.
as §4, with “assay buffer)” for “Assay Buffer)”, “assay” for “Assay”
CDK2/cyclinE: 0.5 nM CDK2/cyclinE and 5 μM Histon H1 are in the reaction buffer plus 1 μM ATP and 1% DMSO final. Incubate for 2 hours at room temperature. […] Incubate for 2 hours at room temperature.

Regarding `Nc1ncnc2c1nc(Sc1cc3c(cc1Br)OCO3)n2CC(=O)NO` [Compound 1, 2-(6-amino-8-(6-bromobenzo[d][1,3]dioxol-5-ylthio)-9H-purin-9-yl)-N-hydroxyacetamide], the melting point was 230 °C (dec.).
With `CC(C)(C)c1cnc(CSc2cnc(NC(=O)C3CCN(CCCC(=O)NO)CC3)s2)o1` [Compound 1, N-(5-((5-tert-butyloxazol-2-yl)methylthio)thiazol-2-yl)-1-(4-(hydroxyamino)-4-oxobutyl)piperidine-4-carboxamide], the melting point lay in the range of 176 to 180 °C.
In turn, `CC(C)(C)c1cnc(CSc2cnc(NC(=O)C3CCN(CCCCCC(=O)NO)CC3)s2)o1` [Compound 3, N-(5-((5-tert-butyloxazol-2-yl)methylthio)thiazol-2-yl)-1-(6-(hydroxyamino)-6-oxohexyl)piperidine-4-carboxamide] had a melting point of 127 to 130 °C.
Take `Cc1[nH]c(/C=C2\C(=O)Nc3ccc(F)cc32)c(C)c1C(=O)NCCCCCC(=O)NO` [Compound 4, N-(5-(hydroxycarbamoyl)pentyl)5-((Z)-(5-fluoro-2-oxoindolin-3-ylidene)methyl)-2,4-dimethyl-1H-pyrrole-3-carboxamide]: the melting point is 209.7 °C (dec.).
For `CN(C)CC[C@H](CSc1ccccc1)Nc1ccc(S(=O)(=O)NC(=O)c2ccc(N3CCN(Cc4ccccc4-c4ccc(Cl)cc4)CC3)c(NC(=O)CCCCC(=O)NO)c2)cc1[N+](=O)[O-]` [Compound 8, (R)—N^1-(2-(4-((4′-Chlorobiphenyl-2-yl)methyl)piperazin-1-yl)-5-(4-(4-(dimethylamino)-1-(phenylthio)butan-2-ylamino)-3-nitrophenylsulfonylcarbamoyl)phenyl)-N^6-hydroxyadipamide], the melting point amounted to 150 °C.
On to `C[C@@H](Nc1ncnc2[nH]c(-c3ccc(OCC(=O)NO)cc3)cc12)c1ccccc1` [Compound 17, (R)—N-hydroxy-2-(4-(4-(1-phenylethylamino)-7H-pyrrolo[2,3-d]pyrimidin-6-yl)phenoxy)acetamide], for which the melting point fell in the range of 116.8 to 126.8 °C.
On the same count and under the same terms, under `Cc1nc(NCCCCCCC(=O)NO)cc(Nc2ncc(C(=O)Nc3c(C)cccc3Cl)s2)n1` [Compound 24, N-(2-chloro-6-methylphenyl)-2-(6-(7-(hydroxyamino)-7-oxoheptylamino)-2-methylpyrimidin-4-ylamino)thiazole-5-carboxamide] stands 150.7 °C (dec.); under `Nc1ccc(C(=O)NCCNC(=O)CCCC(=O)NO)cc1` [Compound 29, N-hydroxy-4-(2-(4-aminobenzamido)-ethylcarbamoyl)butanamide], 158.9 to 159.8 °C.
`COc1cc2ncnc(Nc3ccc(F)c(Cl)c3)c2cc1NC(=O)CCCCCCC(=O)NO` [Compound 40]: the pIC50 in the series on Pancreas_BxPC3, with Pancreas_CFPAC, with Pancreas_HPAC, in the series on Pancreas_MiaPaCa2 and in the series on Pancreas_PANC1 was 5.00 to 6.00 throughout.
With `COc1cc2ncnc(Nc3ccc(F)c(Cl)c3)c2cc1OCCOc1ccc(/C=C/C(=O)NO)cc1` [Compound 66], the pIC50 in the series with Pancreas_BxPC3 was 5.00 to 6.00; with Pancreas_CFPAC, below 5.00; in the series with Pancreas_HPAC, 5.00 to 6.00; with Pancreas_MiaPaCa2 it was 5.00 to 6.00; in the series with Pancreas_PANC1, 5.00 to 6.00.
As to `COCCOc1cc2ncnc(Nc3ccc(F)c(Cl)c3)c2cc1NC(=O)CCCCCCC(=O)NO` [Compound 70, N^1-(4-(3-chloro-4-fluorophenylamino)-7-(2-methoxyethoxy)quinazolin-6-yl)-N^8-hydroxyoctanediamide], the pIC50 in the series with Pancreas_BxPC3 was 5.00 to 6.00; with Pancreas_CFPAC, 5.00 to 6.00; with Pancreas_HPAC it was below 5.00; with Pancreas_MiaPaCa2 it was 5.00 to 6.00; with Pancreas_PANC1, 5.00 to 6.00.
Take `COc1cc2ncnc(N[C@H](C)c3ccccc3)c2cc1OCCCCCC(=O)NO` [Compound 77, (R)—N-hydroxy-6-(7-methoxy-4-(1-phenylethylamino)quinazolin-6-yloxy)-hexanamide]: the pIC50 in the series on Pancreas_BxPC3 is 5.00 to 6.00; in the series on Pancreas_CFPAC, 5.00 to 6.00; in the series on Pancreas_HPAC, below 5.00; with Pancreas_MiaPaCa2 it was 6.00 to 7.00; in the series with Pancreas_PANC1, below 5.00.
Regarding `COc1cc2ncnc(N[C@H](C)c3ccccc3)c2cc1OCCCCCCC(=O)NO` [Compound 79, (R)—N-hydroxy-7-(7-methoxy-4-(1-phenylethylamino)quinazolin-6-yloxy)heptanamide], the pIC50 with Pancreas_BxPC3 was 5.00 to 6.00; in the series on Pancreas_CFPAC, 5.00 to 6.00; with Pancreas_HPAC, below 5.00; in the series with Pancreas_MiaPaCa2, 5.00 to 6.00; in the series on Pancreas_PANC1, 5.00 to 6.00.
Consider `COc1cc2ncnc(Nc3ccc(F)c(Cl)c3)c2cc1NC(=O)Nc1ccc(C(=O)NO)cc1` [Compound 94], for which the pIC50 in series [1] is below 5.00.
Take `COc1cc2ncnc(Nc3ccc(F)c(Cl)c3)c2cc1OCCCCCC(C(=O)NO)C(C)C` (stereo not shown) [Compound 112]: the pIC50 in series [1] was below 5.00.
As for `COc1cc2ncnc(Nc3ccc(F)c(Cl)c3)c2cc1OCCCOc1ccc(C(=O)NO)cc1` [Compound 202], the pIC50 in series [1] was 6.00 to 7.00.
As for `COc1cc2ncnc(Nc3ccc(F)c(Cl)c3)c2cc1OCCCCOc1ccc(C(=O)NO)cc1` [Compound 203], the pIC50 in series [1] is 6.00 to 7.00.
For the compound `COc1cc2ncnc(Nc3ccc(F)c(Cl)c3)c2cc1Oc1ccc(C#CCCC(=O)NO)cc1` [Compound 204], the pIC50 in series [1] was 5.00 to 6.00.
As to `C#Cc1cccc(Nc2ncnc3cc(O)c(OCCCCCCC(=O)NO)cc23)c1` [Compound 207], in series [1], the pIC50 was above 7.00.
The same measure, in the same setting: the value for `C#Cc1cc(Nc2ncnc3cc(O)c(OCCCCCCC(=O)NO)cc23)ccc1O` [Compound 208] was above 7.00.

The term melting point denotes the temperature, or range, at which the solid turns liquid. Broadly, the pIC50 is the negative decadic logarithm of the IC50, by convention in mol/L.
